Experimental data published in patent publication US6358885B1, “Substituted phenylheterocyclic herbicides” (Mississippi State University, priority 1992, dated 2002).

How the values were obtained:
giant foxtail = assay: Test C preemergence/postemergence greenhouse plant response rating 0 to 100; type: in vivo, Setaria faberii; settings: POSTEMERGENCE; for Plant response rating, Giant foxtail: 0 to 100 scale
Text: (§1) The compounds evaluated in this test were formulated in a non-phytoxic solvent and applied to the soil surface before plant seedlings emerged (preemergence application), to water that covered the soil surface (flood application), and to plants that were in the one-to-four leaf stage (postemergence application). A sandy loam soil was used for the preemergence and postemergence tests, while a silt loam soil was used in the flood test. Water depth was approximately 2.5 cm for the flood test and was maintained at this level for the duration of the test. Plant species in the preemergence and postemergence tests consisted of barley (Hordeum vulgare), bedstraw (Galium aparine), blackgrass (Alopecurus myosuroides), chickweed (Stellaria media), corn (Zea mays), cotton (Gossypium hirsutum), crabgrass (Digitaria sanguinalis), downy brome (Bromus tectorum), giant foxtail (Setaria faberii), lambsquarters (Chenopodium album), morningglory (Ipomoea hederacea), pigweed ([…]), rape (Brassica napus), ryegrass (Lolium multiflorum), sorghum (Sorghum bicolor), soybean (Glycine max), speedwell (Veronica persica), sugar beet (Beta vulgaris), velvetleaf (Abutilon theophrasti), wheat (Triticum aestivum), wild buckwheat (Polygonum convolvulus), and wild oat (Avena fatua). All plant species were planted one day before application of the compound for the preemergence portion-of this test. Plantings of these species were adjusted to produce plants of appropriate size for the post-emergence portion of the test. […] All plant species were grown using normal greenhouse practices. Visual evaluations of injury expressed on treated plants, when compared to untreated controls, were recorded approximately fourteen to twenty one days after application of the test compound. […] A dash (-) response means no test result.

wheat [1] = assay: as above; type: in vivo, Triticum aestivum; settings: POSTEMERGENCE; for Plant response rating, Wheat: 0 to 100 scale
Text: as §1

blackgrass = assay: as above; type: in vivo, Alopecurus myosuroides; settings: POSTEMERGENCE; for Plant response rating, Blackgrass: 0 to 100 scale
Text: as §1

crabgrass = assay: as above; type: in vivo, Digitaria sanguinalis; settings: POSTEMERGENCE; for Plant response rating, Crabgrass: 0 to 100 scale
Text: as §1

rape = assay: as above; type: in vivo, Brassica napus; settings: POSTEMERGENCE; for Plant response rating, Rape: 0 to 100 scale
Text: as §1

bedstraw = assay: as above; type: in vivo, Galium aparine; settings: POSTEMERGENCE; for Plant response rating, Bedstraw: 0 to 100 scale
Text: as §1

morningglory = assay: Test B preemergence/postemergence greenhouse plant response rating 0 to 10; type: in vivo, Ipomoea hederacea; settings: 0 to 10 scale
Outline: (§2)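 Test chemicals were sprayed onto freshly planted seed and, concurrently, onto young plants between the one and four leaf stage. After a twelve- to sixteen-day greenhouse period, each species was visually compared with untreated controls.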

wild oat = assay: Test C preemergence/postemergence greenhouse plant response rating 0 to 100; type: in vivo, Avena fatua; settings: POSTEMERGENCE; for Plant response rating, Wild oat: 0 to 100 scale
Text: as §1

velvetleaf = assay: Test B preemergence/postemergence greenhouse plant response rating 0 to 10; type: in vivo, Abutilon theophrasti; settings: 0 to 10 scale
Outline: as §2

barnyardgrass = assay: as above; type: in vivo, Echinochloa crus-galli; settings: for Plant response rating, Barnyardgrass: 0 to 10 scale
Outline: as §2

cotton = assay: as above; type: in vivo, Gossypium hirsutum; settings: for Plant response rating, Cotton: 0 to 10 scale
Outline: as §2

wheat [2] = assay: as above; type: in vivo, Triticum aestivum; settings: 0 to 10 scale
Outline: as §2

`COC(=O)C(C)Oc1cc(-c2nn3c(c2Cl)CCCC3)c(F)cc1Cl` (stereo not drawn) [Compound 28] was tested, and the “Plant response rating, Giant foxtail” value (giant foxtail; 62 g/ha) was 100, the “Plant response rating, Giant foxtail” value (giant foxtail; 250 g/ha) was 100 and the “Plant response rating (0 to 100), Giant foxtail” value (giant foxtail; Rate 4 g/ha) was 20. The “Plant response rating (0 to 100), Giant foxtail” value (giant foxtail; Rate 16 g/ha) was 60, the “Plant response rating, Wheat” value (wheat [1]; 62 g/ha) was 70 and the “Plant response rating, Wheat” value (wheat [1]; 250 g/ha) was 100. The “Plant response rating (0 to 100), Wheat” value (wheat [1]; Rate 4 g/ha) was 40, the “Plant response rating (0 to 100), Wheat” value (wheat [1]; Rate 16 g/ha) was 60 and the “Plant response rating, Blackgrass” value (blackgrass; 62 g/ha) was 50. For the same molecule, the “Plant response rating, Blackgrass” value (blackgrass; 250 g/ha) was 70, the “Plant response rating (0 to 100), Blackgrass” value (blackgrass; Rate 4 g/ha) was 20 and the “Plant response rating (0 to 100), Blackgrass” value (blackgrass; Rate 16 g/ha) was 30. The “Plant response rating, Crabgrass” value (crabgrass; 62 g/ha) was 20, the “Plant response rating, Crabgrass” value (crabgrass; 250 g/ha) was 50 and the “Plant response rating (0 to 100), Crabgrass” value (crabgrass; Rate 4 g/ha) was 0. For the same molecule, the “Plant response rating (0 to 100), Crabgrass” value (crabgrass; Rate 16 g/ha) was 0, the “Plant response rating, Rape” value (rape; 62 g/ha) was 100 and the “Plant response rating, Rape” value (rape; 250 g/ha) was 100. The “Plant response rating (0 to 100), Rape” value (rape; Rate 4 g/ha) was 50, the “Plant response rating (0 to 100), Rape” value (rape; Rate 16 g/ha) was 70 and the “Plant response rating, Bedstraw” value (bedstraw; 62 g/ha) was 100. For the same molecule, the “Plant response rating, Bedstraw” value (bedstraw; 250 g/ha) was 100, the “Plant response rating (0 to 100), Bedstraw” value (bedstraw; Rate 4 g/ha) was 90 and the “Plant response rating (0 to 100), Bedstraw” value (bedstraw; Rate 16 g/ha) was 100. The “Plant response rating, Morningglory” value (morningglory; POSTEMERGENCE, Rate 50 g/ha) was 8, the “Plant response rating, Morningglory” value (morningglory; POSTEMERGENCE, Rate 200 g/ha) was 10 and the “Plant response rating, Morningglory” value (morningglory; PREEMERGENCE, Rate 50 g/ha) was 3. For the same molecule, the “Plant response rating, Morningglory” value (morningglory; Rate 200 g/ha, PREEMERGENCE) was 3, the “Plant response rating, Wild oat” value (wild oat; 62 g/ha) was 50 and the “Plant response rating, Wild oat” value (wild oat; 250 g/ha) was 70. For the same molecule, the “Plant response rating (0 to 100), Wild oat” value (wild oat; Rate 4 g/ha) was 20, the “Plant response rating (0 to 100), Wild oat” value (wild oat; Rate 16 g/ha) was 30 and the “Plant response rating, Velvetleaf” value (velvetleaf; POSTEMERGENCE, Rate 50 g/ha) was 10. The “Plant response rating, Velvetleaf” value (velvetleaf; POSTEMERGENCE, Rate 200 g/ha) was 10, the “Plant response rating, Velvetleaf” value (velvetleaf; PREEMERGENCE, Rate 50 g/ha) was 5 and the “Plant response rating, Velvetleaf” value (velvetleaf; Rate 200 g/ha, PREEMERGENCE) was 10. The “Plant response rating (0 to 10 scale), Barnyardgrass” value (barnyardgrass; POSTEMERGENCE, Rate 50 g/ha) was 7, the “Plant response rating, Barnyardgrass” value (barnyardgrass; POSTEMERGENCE, Rate 200 g/ha) was 10 and the “Plant response rating, Barnyardgrass” value (barnyardgrass; PREEMERGENCE, Rate 50 g/ha) was 0. The “Plant response rating, Barnyardgrass” value (barnyardgrass; Rate 200 g/ha, PREEMERGENCE) was 1, the “Plant response rating (0 to 10 scale), Cotton” value (cotton; POSTEMERGENCE, Rate 50 g/ha) was 10 and the “Plant response rating, Cotton” value (cotton; POSTEMERGENCE, Rate 200 g/ha) was 10. For the same molecule, the “Plant response rating, Cotton” value (cotton; PREEMERGENCE, Rate 50 g/ha) was 0, the “Plant response rating, Cotton” value (cotton; Rate 200 g/ha, PREEMERGENCE) was 0 and the “Plant response rating, Wheat” value (wheat [2]; POSTEMERGENCE, Rate 50 g/ha) was 7. For the same molecule, the “Plant response rating, Wheat” value (wheat [2]; POSTEMERGENCE, Rate 200 g/ha) was 9, the “Plant response rating, Wheat” value (wheat [2]; PREEMERGENCE, Rate 50 g/ha) was 0 and the “Plant response rating, Wheat” value (wheat [2]; Rate 200 g/ha, PREEMERGENCE) was 2.

For `COc1cc(-c2nn3c(c2Cl)CCCC3)c(F)cc1Cl` [Compound 29], the “Plant response rating, Giant foxtail” value (giant foxtail; 62 g/ha) was 70, the “Plant response rating, Giant foxtail” value (giant foxtail; 250 g/ha) was 100 and the “Plant response rating (0 to 100), Giant foxtail” value (giant foxtail; Rate 4 g/ha) was 0. For the same molecule, the “Plant response rating (0 to 100), Giant foxtail” value (giant foxtail; Rate 16 g/ha) was 20, the “Plant response rating, Wheat” value (wheat [1]; 62 g/ha) was 80 and the “Plant response rating, Wheat” value (wheat [1]; 250 g/ha) was 95. The “Plant response rating (0 to 100), Wheat” value (wheat [1]; Rate 4 g/ha) was 20, the “Plant response rating (0 to 100), Wheat” value (wheat [1]; Rate 16 g/ha) was 30 and the “Plant response rating, Blackgrass” value (blackgrass; 62 g/ha) was 50. For the same molecule, the “Plant response rating, Blackgrass” value (blackgrass; 250 g/ha) was 90, the “Plant response rating (0 to 100), Blackgrass” value (blackgrass; Rate 4 g/ha) was 20 and the “Plant response rating (0 to 100), Blackgrass” value (blackgrass; Rate 16 g/ha) was 30. For the same molecule, the “Plant response rating, Crabgrass” value (crabgrass; 62 g/ha) was 20, the “Plant response rating, Crabgrass” value (crabgrass; 250 g/ha) was 50 and the “Plant response rating (0 to 100), Crabgrass” value (crabgrass; Rate 4 g/ha) was 0. For the same molecule, the “Plant response rating (0 to 100), Crabgrass” value (crabgrass; Rate 16 g/ha) was 20, the “Plant response rating, Rape” value (rape; 62 g/ha) was 100 and the “Plant response rating, Rape” value (rape; 250 g/ha) was 100. The “Plant response rating (0 to 100), Rape” value (rape; Rate 4 g/ha) was 90, the “Plant response rating (0 to 100), Rape” value (rape; Rate 16 g/ha) was 100 and the “Plant response rating, Bedstraw” value (bedstraw; 62 g/ha) was 100. The “Plant response rating, Bedstraw” value (bedstraw; 250 g/ha) was 100, the “Plant response rating (0 to 100), Bedstraw” value (bedstraw; Rate 4 g/ha) was 90 and the “Plant response rating (0 to 100), Bedstraw” value (bedstraw; Rate 16 g/ha) was 100. For the same molecule, the “Plant response rating, Morningglory” value (morningglory; POSTEMERGENCE, Rate 50 g/ha) was 8, the “Plant response rating, Morningglory” value (morningglory; PREEMERGENCE, Rate 50 g/ha) was 2 and the “Plant response rating, Morningglory” value (morningglory; Rate 200 g/ha, POSTEMERGENCE) was 10. The “Plant response rating, Morningglory” value (morningglory; Rate 200 g/ha, PREEMERGENCE) was 5, the “Plant response rating, Wild oat” value (wild oat; 62 g/ha) was 60 and the “Plant response rating, Wild oat” value (wild oat; 250 g/ha) was 90. The “Plant response rating (0 to 100), Wild oat” value (wild oat; Rate 4 g/ha) was 20, the “Plant response rating (0 to 100), Wild oat” value (wild oat; Rate 16 g/ha) was 40 and the “Plant response rating, Velvetleaf” value (velvetleaf; POSTEMERGENCE, Rate 50 g/ha) was 8. The “Plant response rating, Velvetleaf” value (velvetleaf; PREEMERGENCE, Rate 50 g/ha) was 10, the “Plant response rating, Velvetleaf” value (velvetleaf; Rate 200 g/ha, POSTEMERGENCE) was 10 and the “Plant response rating, Velvetleaf” value (velvetleaf; Rate 200 g/ha, PREEMERGENCE) was 10. The “Plant response rating (0 to 10 scale), Barnyardgrass” value (barnyardgrass; POSTEMERGENCE, Rate 50 g/ha) was 8, the “Plant response rating, Barnyardgrass” value (barnyardgrass; POSTEMERGENCE, Rate 200 g/ha) was 10 and the “Plant response rating, Barnyardgrass” value (barnyardgrass; PREEMERGENCE, Rate 50 g/ha) was 4. For the same molecule, the “Plant response rating, Barnyardgrass” value (barnyardgrass; Rate 200 g/ha, PREEMERGENCE) was 8, the “Plant response rating (0 to 10 scale), Cotton” value (cotton; POSTEMERGENCE, Rate 50 g/ha) was 10 and the “Plant response rating, Cotton” value (cotton; POSTEMERGENCE, Rate 200 g/ha) was 10. For the same molecule, the “Plant response rating, Cotton” value (cotton; PREEMERGENCE, Rate 50 g/ha) was 1, the “Plant response rating, Cotton” value (cotton; Rate 200 g/ha, PREEMERGENCE) was 7 and the “Plant response rating, Wheat” value (wheat [2]; POSTEMERGENCE, Rate 50 g/ha) was 4. For the same molecule, the “Plant response rating, Wheat” value (wheat [2]; PREEMERGENCE, Rate 50 g/ha) was 0, the “Plant response rating, Wheat” value (wheat [2]; Rate 200 g/ha, POSTEMERGENCE) was 6 and the “Plant response rating, Wheat” value (wheat [2]; Rate 200 g/ha, PREEMERGENCE) was 4.
